Measurements published in publication PMC5582255, “Partial Purification and Characterization of the Recombinant Benzaldehyde Dehydrogenase from Rhodococcus ruber UKMP-5M” (Iranian Journal of Biotechnology, 2017).

System: T1, BZDH (benzaldehyde dehydrogenase, xylC)
T1 construct: xylC ORF of 792 bp, 264 aa, ~27 kDa, homologous to the C-terminal half of other aldehyde dehydrogenases; DEAE ion exchange; forward primer […]; (encodes MSPSPVPPR), reverse primer […]; (C-terminus ...DVPGYPF)
Experiment: NADH formation at […] nm, Lineweaver-Burk
Assay type: biochemical, Rhodococcus ruber
Conditions: co-substrate NAD (standard assay 5 mM, 50 mM glycine-NaOH); 25 °C; benzaldehyde 0.005-4 mM; pH of kinetic run not stated

`O=Cc1ccccc1` [benzaldehyde] gave a Km of 4.2 mM.
